Assay results from patent US20050137522A1, “System for infusing insulin to a subject to improve impaired hepatic glucose processing” (priority 2003, published 2005).
“Also recorded” adds a separate entry of the source.

What was measured:
Assay type in all cases: in vivo, human
[1] = test system: type 1 DM patients with nephropathy; experiment: 18-month multi-center, prospective, controlled study of CIIIT on progression of diabetic nephropathy
Protocol: A study was conducted to assess the effects of Chronic Intermittent Intravenous Insulin Therapy (CIIIT) on the progression of diabetic nephropathy in patients with type 1 diabetes mellitus (DM). This 18-month multi-center, prospective, controlled study involved 49 type 1 DM patients with nephropathy who were following the Diabetes Control and Complications Trial (DCCT) intensive therapy (IT) regimen. Of these, 26 patients formed the control group C, which continued on IT, while 23 patients formed the treatment group (T) and underwent, in addition to IT, weekly CIIIT. […] For all of the above listed examples, after the initial few days of treatment, the patients underwent treatment once a week, each treatment day consisting of three infusions of insulin accompanied by ingestion of carbohydrates. The infusion device used to infuse the insulin was the BIONICA MD-110 pump. Typically there were ten pulses given over a period of one hour, and a rest period of one hour was taken between infusions of insulin. The form in which the carbohydrates were ingested changed from time to time and included eating foods of high glycemic index including but not limited to bread and cake. The patients' circulating glucose was measured once every thirty minutes by the finger stick method currently used by most diabetic patients. […]

[2] = test system: type 2 diabetic male suffering with autonomic neuropathy; experiment: Case report: elevated blood pressure with autonomic neuropathy treated with the subject method; conditions: before treatment 200/120 despite intensive insulin therapy; 5 years of treatment
From the text: An older type 2 diabetic […] suffering with autonomic neuropathy had very elevated blood pressure readings of 200/120 despite a rigorous program to regulate their circulating glucose using intensive insulin therapy of 3 to 4 subcutaneous insulin injections daily. As a result of using the subject method, their blood pressure decreased to 120/80. They have been using the method for 5 years.
(§1) For all of the above listed examples, after the initial few days of treatment, the patients underwent treatment once a week, each treatment day consisting of three infusions of insulin accompanied by ingestion of carbohydrates. The infusion device used to infuse the insulin was the BIONICA MD-110 pump. Typically there were ten pulses given over a period of one hour, and a rest period of one hour was taken between infusions of insulin. The form in which the carbohydrates were ingested changed from time to time and included eating foods of high glycemic index including but not limited to bread and cake. The patients' circulating glucose was measured once every thirty minutes by the finger stick method currently used by most diabetic patients. […] Table 1 below summarizes by the above examples the number of units of insulin per pulse administered and the amount of glucose ingested for each series of pulses: […]

[3] = test system: diabetic patients with neuropathy; experiment: Case reports: diabetic neuropathy treated with the subject method
From the text: A middle-aged person with Type 1 diabetes for more than 22 years suffered from polyneuropathy. They had generalized pain and was unable to walk or even wear stockings because of the pain.
A middle-aged person with Type 1 diabetes for more than 30 years had severe peripheral neuropathy, was in constant pain below the knees and had difficulty sleeping at night. […] They have been using the treatment for eight years.
An elder type 2 diabetic patient had severe painful peripheral neuropathy to the point that they were unable to walk and used a wheelchair. […] Because of financial reasons, they stopped the therapy. As a result, the neuropathy returned, and they returned to using a wheelchair.
A middle-aged type 1 diabetic patient had severe neuropathy. They were a parent of two children who was bed-ridden with autonomic neuropathy before using the subject method two years ago. Their muscles had atrophied, they could not digest their food, they had been told that their nerves were dying inside them as a result of their diabetes. They stated that if they had not have two children, they would have taken their life. They had to quit their job, went on disability and was in an out of the hospital very often. They had welts on their head causing hair loss. They had no sensation in their feet, they had constant nausea, and they couldn't sleep at night because of the pain. They had insulin absorption problems and tried all different ways to improve the absorption of insulin into their body. For a number of years they injected themself intramuscularly because they felt that they obtained the best absorption of insulin that way. […] They have not been in the hospital since. […]
(§2) For all of the above listed examples, after the initial few days of treatment, the patients underwent treatment once a week, each treatment day consisting of three infusions of insulin accompanied by ingestion of carbohydrates. […] The patients' circulating glucose was measured once every thirty minutes by the finger stick method currently used by most diabetic patients. […]

[4] = Circulating glucose by finger stick during insulin pulse treatments; conditions: during the first treatment; all examples; finger stick every thirty minutes
From the text: as §1

[5] = test system: diabetic patients with retinopathy; experiment: Case reports: retinopathy treated with the subject method
From the text: A middle-aged person with type 1 diabetes for 38 years suffered from macular degeneration (retinopathy). They were unable to drive at night. […] The patient has been receiving treatment for 4 years.
A middle-aged type 2 diabetic patient had proliferative diabetic retinopathy with severe bleeding. Multiple photocoagulation scars made additional photocoagulation impossible. […] The patient has been using the subject method for 5 years, and they have had no further bleeding of the retina and no further photocoagulation.
(§3) For all of the above listed examples, after the initial few days of treatment, the patients underwent treatment once a week, each treatment day consisting of three infusions of insulin accompanied by ingestion of carbohydrates. The infusion device used to infuse the insulin was the BIONICA MD-110 pump. Typically there were ten pulses given over a period of one hour, and a rest period of one hour was taken between infusions of insulin. The form in which the carbohydrates were ingested changed from time to time and included eating foods of high glycemic index including but not limited to bread and cake. The patients' circulating glucose was measured once every thirty minutes by the finger stick method currently used by most diabetic patients. […]

[6] = test system: diabetic patients with leg ulcers; experiment: Case reports: diabetes related leg ulcers treated with the subject method; conditions: ulcers not responding to any available therapy, Examples 10 and 11; listed as subject method
From the text: An older type 2 diabetic had one amputated leg as a result of diabetes related ulcers on that leg. They had developed ulcers on the other leg that would not respond to any available therapy and was in danger of losing the other leg to amputation. […] This patient used the subject method for several more years, and no additional ulcers formed.
A middle-aged type 1 diabetic patient had developed severe ulcers on both legs, which would not heal with any available treatment. […] The patient has been using the subject method now for 13 years.
as §3

[7] = test system: patients suffering from senile dementia; experiment: Senile dementia in patients treated with Hepatic Activation / the present invention; conditions: diabetic patients with senile dementia
From the text: On many occasions patients who have been diabetics as well as having dementia have been treated with the method of the current invention. Dementia appears to be related to poor metabolism of glucose in the brain, which may well be the result of constricted flow of blood. This poor metabolism is at least in part the cause of the dementia.
A diabetic who was suffering from advanced senile dementia was placed in a nursing home because of excessive confusion, weakness, disorientation and lack of memory. Because the nursing home was not keeping up the strict four shot regimen needed by the patient for their diabetic blood sugar control, the patient's children removed the patient from the nursing home. The attending doctor recommended Hepatic Activation. Once the patient was activated, they returned to a totally independent living style.
as §2, with “carbohydrates. The infusion device used to infuse the insulin was the BIONICA MD-110 pump.” for “carbohydrates.”

[8] = test system: diabetic patients with heart disease; experiment: Case reports: diabetic heart disease treated with the subject method
From the text: A middle-aged person with type 2 diabetes for 17 years was suffering from severe dilated cardiomyopathy (ejection fraction 14-19%). They were placed on the list to receive a heart transplant prior to starting treatment with the subject method. […] The patient has been receiving treatment for 10 years and is still off the heart transplant list. Their ejection fraction is currently 29-32%.
A middle-aged type 2 diabetic patient had severe heart disease including congestive heart failure and severe artereosclerotic heart disease. The patient was scheduled for heart surgery but because of their poor condition, surgeons refused to operate.
An older type 1 diabetic patient who was diabetic was scheduled for a coronary artery by-pass graft to correct their diabetes related heart disease. The surgeons were reluctant to operate in the condition they were in because of their advanced diabetes related arteriosclerosis. They were scheduled for a single vessel graft. […] They continuing using the subject method for several years after the surgery with no further deterioration in their diabetes related heart disease.
as §1

[9] = test system: type 2 diabetic patient with diabetes related kidney disease; experiment: Case report: diabetes related kidney disease (proteinuria) treated with the subject method; conditions: before treatment 1500 milligrams of protein during 24 hours, rising 500 milligrams/24 hours/year; 5 years of treatment
Protocol: An older type 2 diabetic was exercising and had excellent circulating glucose control under intense insulin therapy including 3-4 injections per day of subcutaneous insulin. Even so, their diabetes related kidney disease had progressed to the point where they were discharging 1500 milligrams of protein during a 24-hour period and the rate of increase was 500 milligrams/24 hours/year. After using the subject method, the patient's proteinuria was reduced to 600-800 milligrams/24 hours. They have been using the method for 5 years.
as §3

[10] = type 1 patient with severe autonomic neuropathy, Example 14

**Q.** Which “progression of diabetic nephropathy” value ([1]; CIIIT added to IT in type 1 DM patients with overt nephropathy) does the source give for insulin [CIIIT] here?
**A.** markedly reduce the progression of diabetic nephropathy

**Q.** What about the “rate of CrCl decline” value ([1]; type 1 DM patients with nephropathy, 18 months, T group (weekly CIIIT added to IT, 23 patients) vs C group (IT alone, 26 patients), P=0.0343) of the same substance?
**A.** 2.21±1.62 ml/min/yr

**Q.** And the blood pressure [2]?
**A.** 120/80

**Q.** And the “neuropathic pain after treatment” value ([3]; single patients with polyneuropathy / peripheral neuropathy, listed as subject method)?
**A.** the pain has been reduced to the point where the person enjoys rigorous exercise; also recorded: no longer takes pain medication and has no twinges of pain in their legs; also recorded: the pain had subsided to the point where they no longer used a wheelchair

**Q.** What about the gastroparesis [3, 10] of the same substance?
**A.** Her gastroparesis was reversed

**Q.** And the numbness in legs [3, 10]?
**A.** The numbness in their legs has gone away

**Q.** And the “rise of circulating glucose levels” value [4]?
**A.** 100 to 150 mg/dL

**Q.** What about the eyesight ([5]; type 1 person, macular degeneration (retinopathy), unable to drive at night before treatment, 4 years of treatment) of the same substance?
**A.** eyesight improved to the point where night driving was no longer a concern

**Q.** What about the retinal bleeding ([5]; type 2 male, proliferative diabetic retinopathy with severe bleeding, 5 years of treatment) of the same substance?
**A.** the bleeding stopped, and there was no further deterioration of the retina

**Q.** What about the leg ulcers [6] of the same substance?
**A.** the ulcers on their second leg healed; also recorded: the ulcers healed and have never returned

**Q.** What about the senile dementia symptoms ([7]; listed as Hepatic Activation) of the same substance?
**A.** significant improvement in their motor skills, memory, and cognitive function

**Q.** And the senile dementia symptoms ([7]; listed as present invention)?
**A.** clearly shown improvement in confusion, weakness, disorientation, cognitive function and lack of memory

**Q.** What about the postoperative recovery ([8]; after by-pass surgery, Examples 6 and 8, listed as subject method) of the same substance?
**A.** normal postoperative recovery

**Q.** And the insulin intake ([8]; same patient, Example 4, before treatment 150 units a day)?
**A.** 24-26 units/day

**Q.** What about the “cardiac condition / need or fitness for heart surgery” value ([8]; single patients, Examples 4, 6, 8, listed as subject method) of the same substance?
**A.** no longer required a heart transplant; also recorded: could withstand 4-vessel by-pass surgery; also recorded: their condition improved to the point where the doctors performed two instead of one grafts

**Q.** And the ejection fraction ([8]; type 2 diabetic patient, severe dilated cardiomyopathy, before treatment 14-19%, after 10 years of treatment)?
**A.** 29-32%

**Q.** And the proteinuria [9]?
**A.** 600-800 milligrams/24 hours
